ChEMBL document CHEMBL1909294, “Translating clinical findings into knowledge in drug safety evaluation--drug induced liver injury prediction system (DILIps)” (PLoS Comput Biol, 2011)

How the values were obtained:
Hepatotoxicity [1] = tested on: Hepatotoxicity;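 for HepSE bilirubinemia: bilirubinemia hepatic side effect score drawn from the DILIps training data, a prediction system for drug-induced liver injury; call rule not given here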;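 for HepSE cholecystitis: Cholecystitis-related hepatic side effect score drawn from the DILIps (drug-induced liver injury prediction) training data set; call rule not given here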;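 for HepSE cholelithiasis: hepatic side effect score for cholelithiasis, drawn from the DILIps training data for predicting drug-induced liver injury; call rule not given here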;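 for HepSE cirrhosis: cirrhosis hepatic side effect score taken from the DILIps (drug-induced liver injury prediction) training set; call rule not given here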;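 for HepSE elevated liver function tests: hepatic side effect score for raised liver function tests, as recorded in the DILIps training set used for predicting drug-induced liver injury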; for HepSE hepatic failure: call rule not given here;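 for HepSE hepatomegaly: hepatic side effect score for hepatomegaly, taken from the training set of the DILIps drug-induced liver injury prediction system; call rule not given here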
Hepatotoxicity [2] = tested on: Hepatotoxicity; remark: listed apart in the source;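 for HepSE bilirubinemia: bilirubinemia hepatic side effect score drawn from the DILIps training data, a prediction system for drug-induced liver injury; call rule not given here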;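 for HepSE cholecystitis: Cholecystitis-related hepatic side effect score drawn from the DILIps (drug-induced liver injury prediction) training data set; call rule not given here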;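 for HepSE cholelithiasis: hepatic side effect score for cholelithiasis, drawn from the DILIps training data for predicting drug-induced liver injury; call rule not given here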;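 for HepSE cirrhosis: cirrhosis hepatic side effect score taken from the DILIps (drug-induced liver injury prediction) training set; call rule not given here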;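 for HepSE elevated liver function tests: hepatic side effect score for raised liver function tests, as recorded in the DILIps training set used for predicting drug-induced liver injury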; for HepSE hepatic failure: call rule not given here
Hepatotoxicity [3] = tested on: Hepatotoxicity; remark: listed apart in the source;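 for HepSE bilirubinemia: bilirubinemia hepatic side effect score drawn from the DILIps training data, a prediction system for drug-induced liver injury; call rule not given here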;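 for HepSE cholecystitis: Cholecystitis-related hepatic side effect score drawn from the DILIps (drug-induced liver injury prediction) training data set; call rule not given here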;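 for HepSE cholelithiasis: hepatic side effect score for cholelithiasis, drawn from the DILIps training data for predicting drug-induced liver injury; call rule not given here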;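 for HepSE cirrhosis: cirrhosis hepatic side effect score taken from the DILIps (drug-induced liver injury prediction) training set; call rule not given here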;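 for HepSE elevated liver function tests: hepatic side effect score for raised liver function tests, as recorded in the DILIps training set used for predicting drug-induced liver injury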; for HepSE hepatic failure: call rule not given here
Hepatotoxicity [4] = tested on: Hepatotoxicity; remark: listed apart in the source;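 for HepSE bilirubinemia: bilirubinemia hepatic side effect score drawn from the DILIps training data, a prediction system for drug-induced liver injury; call rule not given here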;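 for HepSE cholecystitis: Cholecystitis-related hepatic side effect score drawn from the DILIps (drug-induced liver injury prediction) training data set; call rule not given here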;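 for HepSE cholelithiasis: hepatic side effect score for cholelithiasis, drawn from the DILIps training data for predicting drug-induced liver injury; call rule not given here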;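 for HepSE cirrhosis: cirrhosis hepatic side effect score taken from the DILIps (drug-induced liver injury prediction) training set; call rule not given here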;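 for HepSE elevated liver function tests: hepatic side effect score for raised liver function tests, as recorded in the DILIps training set used for predicting drug-induced liver injury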; for HepSE hepatic failure: call rule not given here
Hepatotoxicity [5] = tested on: Hepatotoxicity; remark: listed apart in the source; for HepSE hepatic failure: call rule not given here
Hepatotoxicity [6] = tested on: Hepatotoxicity; remark: listed apart in the source; for HepSE hepatic failure: call rule not given here
Hepatotoxicity [7] = tested on: Hepatotoxicity; remark: listed apart in the source
Hepatotoxicity [8] = tested on: Hepatotoxicity; remark: listed apart in the source
Hepatotoxicity [9] = tested on: Hepatotoxicity; remark: listed apart in the source
Hepatotoxicity [10] = tested on: Hepatotoxicity; remark: listed apart in the source
Hepatotoxicity [11] = tested on: Hepatotoxicity; remark: listed apart in the source
Hepatotoxicity [12] = tested on: Hepatotoxicity; remark: listed apart in the source
Hepatotoxicity [13] = tested on: Hepatotoxicity; remark: listed apart in the source
Hepatotoxicity [14] = tested on: Hepatotoxicity; remark: listed apart in the source

Row | Compound | HepSE_bilirubinemia (Hepatotoxicity [1]) | HepSE_cholecystitis (Hepatotoxicity [2]) | HepSE_cholelithiasis (Hepatotoxicity [3]) | HepSE_cirrhosis (Hepatotoxicity [4]) | HepSE_elevated liver function tests (Hepatotoxicity [5]) | HepSE_hepatic failure (Hepatotoxicity [6]) | HepSE_hepatic necrosis (Hepatotoxicity [7]) | HepSE_hepatitis (Hepatotoxicity [8]) | HepSE_hepatomegaly (Hepatotoxicity [9]) | HepSE_jaundice (Hepatotoxicity [10]) | HepSE_liver disease (Hepatotoxicity [11]) | HepSE_liver fatty (Hepatotoxicity [12]) | HepSE_liver function tests abnormal (Hepatotoxicity [13]) | HepSE_Combined Scores (Hepatotoxicity [14]) | other results
1 | C[C@@H](c1ncncc1F)[C@](O)(Cn1cncn1)c1ccc(F)cc1F [VORICONAZOLE] | 1 | 1 | 1 | 0 | 1 | 1 | 0 | 1 | 1 | 1 | 1 | 0 | 1 | 10 | –
2 | CC(=O)CC(c1ccccc1)c1c(O)c2ccccc2oc1=O (configuration not stated) [WARFARIN] | 0 | 0 | 0 | 0 | 0 | 0 | 0 | 1 | 0 | 1 | 0 | 0 | 0 | 2 | –
3 | COc1cc(C(=O)NS(=O)(=O)c2ccccc2C)ccc1Cc1cn(C)c2ccc(NC(=O)OC3CCCC3)cc12 [ZAFIRLUKAST] | 1 | 0 | 0 | 0 | 1 | 1 | 0 | 1 | 0 | 0 | 0 | 0 | 0 | 4 | –
4 | Nc1ccn([C@H]2CC[C@@H](CO)O2)c(=O)n1 [ZALCITABINE] | – | – | – | – | – | – | – | – | – | – | – | – | – | – | HepSE_bilirubinemia (Hepatotoxicity [1]; Liver): 1; HepSE_cholecystitis (Hepatotoxicity [2]; Liver): 1; HepSE_cholelithiasis (Hepatotoxicity [3]; Liver): 0; HepSE_cirrhosis (Hepatotoxicity [4]; Liver): 0; HepSE_elevated liver function tests (Hepatotoxicity [5]; Liver): 0; HepSE_hepatic failure (Hepatotoxicity [6]; Liver): 0; HepSE_hepatic necrosis (Hepatotoxicity [7]; Liver): 0; HepSE_hepatitis (Hepatotoxicity [8]; Liver): 1; HepSE_hepatomegaly (Hepatotoxicity [9]; Liver): 1; HepSE_jaundice (Hepatotoxicity [10]; Liver): 1; HepSE_liver disease (Hepatotoxicity [11]; Liver): 0; HepSE_liver fatty (Hepatotoxicity [12]; Liver): 0; HepSE_liver function tests abnormal (Hepatotoxicity [13]; Liver): 0; HepSE_Combined Scores (Hepatotoxicity [14]; Liver): 5
5 | CCN(C(C)=O)c1cccc(-c2ccnc3c(C#N)cnn23)c1 [ZALEPLON] | 1 | 0 | 1 | 0 | 0 | 0 | 0 | 0 | 0 | 0 | 0 | 0 | 1 | 3 | –
6 | CC(=O)N[C@H]1[C@H]([C@H](O)[C@H](O)CO)OC(C(=O)O)=C[C@@H]1N=C(N)N [ZANAMIVIR] | 0 | 0 | 0 | 0 | 0 | 0 | 0 | 0 | 0 | 0 | 0 | 0 | 0 | 0 | –
7 | Cc1cn([C@H]2C[C@H](N=[N+]=[N-])[C@@H](CO)O2)c(=O)[nH]c1=O [ZIDOVUDINE] | 1 | 0 | 0 | 0 | 0 | 0 | 0 | 1 | 1 | 1 | 0 | 0 | 0 | 4 | –
8 | O=C1Cc2cc(CCN3CCN(c4nsc5ccccc45)CC3)c(Cl)cc2N1 [ZIPRASIDONE] | 0 | 0 | 0 | 0 | 0 | 0 | 0 | 1 | 1 | 1 | 0 | 1 | 0 | 4 | –
9 | O.O=P(O)(O)C(O)(Cn1ccnc1)P(=O)(O)O [ZOLEDRONIC ACID] | 0 | 0 | 0 | 0 | 0 | 0 | 0 | 0 | 0 | 0 | 0 | 0 | 1 | 1 | –
10 | CN(C)CCc1c[nH]c2ccc(C[C@H]3COC(=O)N3)cc12 [ZOLMITRIPTAN] | 0 | 0 | 0 | 0 | 0 | 0 | 0 | 0 | 0 | 1 | 1 | 0 | 0 | 2 | –
11 | Cc1ccc(-c2nc3ccc(C)cn3c2CC(=O)N(C)C)cc1 [ZOLPIDEM] | 1 | 0 | 0 | 0 | 0 | 0 | 0 | 0 | 0 | 0 | 0 | 0 | 0 | 1 | –
12 | NS(=O)(=O)Cc1noc2ccccc12 [ZONISAMIDE] | 0 | 1 | 1 | 0 | 0 | 0 | 0 | 0 | 0 | 1 | 0 | 0 | 0 | 3 | –
13 | CN1CCN(C(=O)OC2c3nccnc3C(=O)N2c2ccc(Cl)cn2)CC1 (configuration not stated) [ZOPICLONE] | 0 | 0 | 1 | 0 | 0 | 0 | 0 | 1 | 1 | 0 | 0 | 0 | 0 | 3 | –
14 | AURANOFIN | 0 | 0 | 0 | 0 | 0 | 0 | 0 | 0 | 0 | 1 | 0 | 0 | 0 | 1 | –
15 | BLEOMYCIN | 0 | 0 | 0 | 0 | 0 | 0 | 0 | 0 | 0 | 0 | 0 | 0 | 0 | 0 | –
16 | CARBOPLATIN | 0 | 0 | 0 | 0 | 0 | 0 | 0 | 0 | 0 | 0 | 0 | 0 | 1 | 1 | –
17 | CISPLATIN | 0 | 0 | 0 | 0 | 0 | 0 | 0 | 0 | 0 | 0 | 0 | 0 | 0 | 0 | –
18 | COLESEVELAM HYDROCHLORIDE | 0 | 0 | 0 | 0 | 0 | 0 | 0 | 0 | 0 | 0 | 0 | 0 | 0 | 0 | –
